Assay results from PubChem BioAssay AID1918994 (Molecular Pharmacology Branch, DTP, NCI, 2023).

Tested on: 292921-168-R-J2-PDC complex spheroid growth
Experiment: Anticancer human tumor 292921-168-R-J2-PDC patient-derived pancreatic carcinoma cell line growth inhibition [AhR]
Details: for IC50: curve of first compound; for viability, T/C: stronger effect = lower value
Source text: Multicellular complex tumor spheroid response to aryl hydrocarbon receptor antagonists in combination with a variety of drugs and investigational agents in selected tumor cell lines
The current study was undertaken to assess response to aryl hydrocarbon receptor antagonists in combination with standard-of-care drugs and investigational agents in solid tumor complex spheroid models. Complex spheroids include a stromal component modeled by human endothelial cells (HUVEC) and fibroblasts modeled by human mesenchymal stem cells (MSCs). The concentration ranges selected for each drug and investigational agent were based upon clinically achievable concentrations if the clinical Cmax of the agent was known.
Compounds. The drugs and investigational agents: BAY 2416964 (NSC825713), GNF351 (NSC835774), CH-223191 (NSC835775), CPI-455 (NSC825282), aza-TdCyd (NSC777586), decitabine (NSC127716), belinostat (NSC758774), entinostat (NSC756642), pevonedistat (NSC761192), tazemetostat (NSC777109), talazoparib (NSC765396), olaparib (NSC753686), selinexor (NSC780203), nedisertib (M3814, NSC802822), bortezomib (NSC756655), venetoclax (NSC766270), doxorubicin (NSC123127), elimusertib (BAY189344, NSC800525), ceralasertib (AZD6738, NSC777638), TAK-243 (NSC785004), alisertib (NSC759677), etoposide (NSC141540), topotecan (NSC609699), eribulin (NSC707389), gemcitabine (NSC613327), carboplatin (NSC241240), cisplatin (NSC119875), and SN-38 (NSC673596) were obtained from the National Cancer Institute (NCI) Developmental Therapeutics Program Chemical Repository (32). The FDA-approved anticancer drug set is available from the Developmental Therapeutics Program at https://dtp.cancer.gov/organization/dscb/obtaining/available plates.htm. […] The stock solutions were prepared in dimethyl sulfoxide (DMSO, Sigma-Aldrich, St. Louis, MO, cat. D2650), except for the platinum compounds which were prepared in saline (Quality Biological, Gaithersburg, MD, cat. 114-055-101), at 800-fold the tested concentration and stored at -70 degrees C prior to their use. All drugs and investigational agents were tested over a range starting from a high concentration at or near the clinical Cmax and decreasing in half-log increments. If the clinical Cmax for an agent had not been determined, the highest concentration tested was 10 microM (Table 1).
Cell Culture. All cells were maintained in an incubator at 37 degrees C and 5% CO2 with 95% humidity. The PDC lines were cultured according to standard operating procedures established by the NCI PDMR (https://pdmr.cancer.gov). Briefly, all PDCs were thawed and cultured in Matrigel-coated flasks prepared with a working solution of 1X Ham's F-12 nutrient mix, without supplementation (Invitrogen, Waltham, MA, cat. 11765054), 100 U/mL penicillin-streptomycin (Invitrogen, cat. 15140122), and 2.5% Matrigel (Corning Inc., Corning, NY, cat. 354248) for the first three passages. All PDCs were cultured in complete DMEM/F-12 media containing advanced DMEM/F-12 (Invitrogen, cat. 12634028), 4.9% defined fetal bovine serum, heat inactivated (HyClone Laboratories Inc., Logan, UT, cat. SH30070.03HI), 389 ng/mL hydrocortisone (Sigma-Aldrich, cat. H4001), 9.7 ng/mL human EGF recombinant protein (Invitrogen, cat. PHG0313), 23.4 microg/mL adenine (Sigma-Aldrich, cat. A2786), 97.3 U/mL penicillin-streptomycin (Invitrogen, cat. 15140122), 1.9 mM L-glutamine (Invitrogen, cat. 25030081), and 9.7 microM Y-27632 dihydrochloride (Tocris Bioscience, Bristol, United Kingdom, cat. 1254). The PDCs were cultured in complete DMEM/F12 media without 10 microM Y-27632 dihydrochloride for at least two passages prior to the screen. The established cell lines NCI-H1341 and […] were cultured in DMEM/F-12, HEPES (Invitrogen, cat. 11330032), 5% defined fetal bovine serum (HyClone Laboratories Inc., cat. SH30070.03), ITS premix universal culture supplement [insulin (5 microg/mL), transferrin (5 microg/mL), and selenious acid (5 ng/mL)] […]

[1] = second compound 0.1 µM, first compound 0.0316 µM
[2] = second compound 0.1 µM, first compound 0.1 µM
[3] = second compound 0.1 µM, first compound 0.316 µM
[4] = second compound 0.1 µM, first compound 1 µM
[5] = second compound 0.1 µM, first compound 3.16 µM
[6] = second compound 0.1 µM, first compound 10 µM
[7] = second compound 0.316 µM, first compound 0.0316 µM
[8] = second compound 0.316 µM, first compound 0.1 µM
[9] = second compound 0.316 µM, first compound 0.316 µM
[10] = second compound 0.316 µM, first compound 1 µM
[11] = second compound 0.316 µM, first compound 3.16 µM
[12] = second compound 0.316 µM, first compound 10 µM
[13] = second compound 1 µM, first compound 0.0316 µM
[14] = second compound 1 µM, first compound 0.1 µM
[15] = second compound 1 µM, first compound 0.316 µM
[16] = second compound 1 µM, first compound 1 µM
[17] = second compound 1 µM, first compound 3.16 µM
[18] = second compound 1 µM, first compound 10 µM
[19] = second compound 3.16 µM, first compound 0.0316 µM
[20] = second compound 3.16 µM, first compound 0.1 µM
[21] = second compound 3.16 µM, first compound 0.316 µM
[22] = second compound 3.16 µM, first compound 1 µM
[23] = second compound 3.16 µM, first compound 3.16 µM
[24] = second compound 3.16 µM, first compound 10 µM
[25] = second compound 10 µM, first compound 0.0316 µM
[26] = second compound 10 µM, first compound 0.1 µM
[27] = second compound 10 µM, first compound 0.316 µM
[28] = second compound 10 µM, first compound 1 µM
[29] = second compound 10 µM, first compound 3.16 µM
[30] = second compound 10 µM, first compound 10 µM
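Also: spheroids exposed to compounds for seven days after three days of growth.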

Row | Compound | IC50 (second compound 0.1 µM) [nM] | IC50 (second compound 0.316 µM) [nM] | IC50 (second compound 1 µM) [nM] | IC50 (second compound 3.16 µM) [nM] | IC50 (second compound 10 µM) [nM] | viability, T/C [1] [%] | viability, T/C [2] [%] | viability, T/C [3] [%] | viability, T/C [4] [%] | viability, T/C [5] [%] | viability, T/C [6] [%] | viability, T/C [7] [%] | viability, T/C [8] [%] | viability, T/C [9] [%] | viability, T/C [10] [%] | viability, T/C [11] [%] | viability, T/C [12] [%] | viability, T/C [13] [%] | viability, T/C [14] [%] | viability, T/C [15] [%] | further results
1 | Nc1ccccc1NC(=O)c1ccc(CNC(=O)OCc2cccnc2)cc1 + CC(CO)NC(=O)c1cc(-c2ccc(Cl)cc2)nn(-c2cnn(C)c2)c1=O | 190 | 148 | 195 | 116 | < 31.6 | 67.5 | 58.8 | 43 | 31 | 25.5 | 9.72 | 69 | 51.2 | 44.3 | 28.1 | 23.7 | 10.4 | 66.6 | 60.7 | 43.4 | viability, T/C [16]: 25.4%; viability, T/C [17]: 23.7%; viability, T/C [18]: 9.21%; viability, T/C [19]: 60.8%; viability, T/C [20]: 51.1%; viability, T/C [21]: 43.3%; viability, T/C [22]: 23.1%; viability, T/C [23]: 22.7%; viability, T/C [24]: 8.28%; viability, T/C [25]: 45.9%; viability, T/C [26]: 40.5%; viability, T/C [27]: 32.9%; viability, T/C [28]: 19.4%; viability, T/C [29]: 18.1%; viability, T/C [30]: 5.12%
2 | O=C(c1cc(Cc2n[nH]c(=O)c3ccccc23)ccc1F)N1CCN(C(=O)C2CC2)CC1 + CC(CO)NC(=O)c1cc(-c2ccc(Cl)cc2)nn(-c2cnn(C)c2)c1=O | > 10000 | > 10000 | > 10000 | > 10000 | > 10000 | 100 | 96.1 | 92.4 | 98.8 | 78.4 | 64 | 97.4 | 98.4 | 99.4 | 90.1 | 74.3 | 66.7 | 90.3 | 103 | 94.7 | viability, T/C [16]: 90.2%; viability, T/C [17]: 78.2%; viability, T/C [18]: 66.2%; viability, T/C [19]: 85.9%; viability, T/C [20]: 86%; viability, T/C [21]: 81.8%; viability, T/C [22]: 83.7%; viability, T/C [23]: 70.8%; viability, T/C [24]: 55.9%; viability, T/C [25]: 67.5%; viability, T/C [26]: 62.8%; viability, T/C [27]: 67.1%; viability, T/C [28]: 63.4%; viability, T/C [29]: 56.6%; viability, T/C [30]: 49%
